Assays:
Conditions in all cases: 72 h
HEL = tested on: HEL
In short: (§1)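 For the IC50, dose–response curves were fitted with a log-logistic model. The data came from fifteen myeloid leukaemia cell lines grown in RPMI 1640 at densities in the linear growth range and incubated in 384-well plates for 72 h at 37 °C under 5% CO2. Doses were five tenfold steps from 1 to 10,000 nM in duplicate, and luminescent ATP viability was normalised to vehicle and to a positive control at 10 µM before four-parameter fitting.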

ML-2 = tested on: ML-2
In short: as §1

HL-60 [1] = tested on: HL-60
In short: as §1

SHI-1 [2] = tested on: SHI-1
In short: as §1

Mono-Mac-6 [3] = tested on: Mono-Mac-6
In short: as §1

KCL-22 = tested on: KCL-22
In short: as §1

KU-812 [4] = tested on: KU-812
In short: as §1

NOMO-1 [5] = tested on: NOMO-1
In short: as §1

K-562 [6] = tested on: K-562
In short: as §1

MOLM-13 [7] = tested on: MOLM-13
In short: as §1

KG-1 = tested on: KG-1
In short: as §1

THP-1 [8] = tested on: THP-1
In short: as §1

MV4-11 [9] = tested on: MV4-11
In short: as §1

LAMA-84 [10] = tested on: LAMA-84
In short: as §1

BV-173 [11] = tested on: BV-173
In short: as §1

[12] = tested on: myeloid leukemia patient primary cells Pat.5; test: area under dose-response curve (viability, 1 nM-10 uM) (fraction (0-1)); higher = more sensitive
Protocol: (§2)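 AUC (0–1, higher = more sensitive) of the 5-point dose–response (1 nM–10 µM, 72 h, CellTiter-Glo) in primary AML/CML patient mononuclear cells. 0.030103 is the floor for inactive compounds.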

[13] = tested on: myeloid leukemia patient primary cells Pat.8; test: as above
Protocol: as §2

[14] = tested on: myeloid leukemia patient primary cells Pat.12; test: as above
Protocol: as §2

[15] = tested on: myeloid leukemia patient primary cells Pat.11; test: as above
Protocol: as §2

[16] = tested on: myeloid leukemia patient primary cells Pat.14; test: as above
Protocol: as §2

[17] = tested on: myeloid leukemia patient primary cells Pat.3; test: as above
Protocol: as §2

[18] = tested on: myeloid leukemia patient primary cells Pat.6; test: as above
Protocol: as §2

[19] = tested on: myeloid leukemia patient primary cells Pat.4; test: as above
Protocol: as §2

[20] = tested on: myeloid leukemia patient primary cells Pat.7; test: as above
Protocol: as §2

[21] = tested on: myeloid leukemia patient primary cells Pat.1; test: as above
Protocol: as §2

[22] = tested on: myeloid leukemia patient primary cells Pat.10; test: as above
Protocol: as §2

[23] = tested on: myeloid leukemia patient primary cells Pat.9; test: as above
Protocol: as §2

[24] = tested on: myeloid leukemia patient primary cells Pat.2; test: as above
Protocol: as §2

[25] = tested on: myeloid leukemia patient primary cells Pat.13; test: as above
Protocol: as §2

[26] = tested on: myeloid leukemia patient primary cells Pat.15; test: as above
Protocol: as §2

HL-60 [27] = test: cell viability (% survival relative to DMSO control); higher = less cytotoxic
In short: (§3)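 Area under the curve, where listed, was derived from four-parameter log-logistic fits with drc and PharmacoGx. These fits used CellTiter-Glo viability from HL-60 cells in RPMI 1640 with 10% FBS, normalised to DMSO wells and wells holding 10 μM proteasome inhibitor. The full library was rescreened on 384-well plates in duplicate at five tenfold concentrations, 1–10,000 nM, with DMSO or 100 nM of one of three metabolic inhibitors, for 72 h at 37 °C, 5% CO2.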

HL-60 [28] = test: cell viability (% survival relative to DMSO control, bortezomib = 0%); higher = less cytotoxic
In short: (§4)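 Percent survival figures are means of duplicate wells. They were obtained by CellTiter-Glo luminescence after 10 AML and 5 CML cell lines spent 72 h at 37 °C with 5% CO2 in 384-well plates with compounds at 1, 10, 100, 1000 or 10000 nM. Vehicle was set to 100% and a 10 µM positive control to 0%.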

SHI-1 [29] = test: as above
In short: as §4

Mono-Mac-6 [30] = test: as above
In short: as §4

KU-812 [31] = test: as above
In short: as §4

NOMO-1 [32] = test: as above
In short: as §4

K-562 [33] = test: as above
In short: as §4

MOLM-13 [34] = test: as above
In short: as §4

THP-1 [35] = test: as above
In short: as §4

MV4-11 [36] = test: as above
In short: as §4

LAMA-84 [37] = test: as above
In short: as §4

BV-173 [38] = test: as above
In short: as §4

HL-60 [39] = test: area under dose-response curve (viability, 1 nM-10 uM) (fraction (0-1)); higher = more sensitive
In short: as §3

CS(=O)(=O)N1CCN(Cc2cc3nc(-c4cccc5[nH]ncc45)nc(N4CCOCC4)c3s2)CC1 [Pictilisib]
Conditions	IC50 (cell viability) [µM]	area under dose-response curve
BV-173 [11]	> 10	–
HEL	> 10	–
HL-60 [1]	0.0159	–
K-562 [6]	1.27	–
KCL-22	> 10	–
KG-1	> 10	–
KU-812 [4]	> 10	–
LAMA-84 [10]	> 10	–
ML-2	9.06	–
MOLM-13 [7]	0.969	–
MV4-11 [9]	1.19	–
Mono-Mac-6 [3]	> 10	–
NOMO-1 [5]	> 10	–
SHI-1 [2]	0.987	–
THP-1 [8]	> 10	–
[12]	–	0.384
[13]	–	0.536
[14]	–	< 0.0301
[15]	–	0.0959
[16]	–	0.529
[17]	–	0.519
[18]	–	0.0368
[19]	–	0.294
[20]	–	0.507
[21]	–	0.538
[22]	–	0.456
[23]	–	0.257
[24]	–	< 0.0301
[25]	–	< 0.0301
[26]	–	0.439

CCOC(=O)c1ccc(-c2ccc(OC(=O)N(C)Cc3cccc(-c4ccncc4)c3)cc2)cc1 [WWL 113]
cell viability [%], HL-60 [27]
Conditions	0.001 µM	0.01 µM	0.1 µM	1 µM	10 µM
co-treatment: AZD3965 100 nM	99.55	98.5	94	97.8	101
co-treatment: DMSO vehicle	106	102	98.3	102.3	102
co-treatment: GSK2194069 100 nM	99.6	96	86.5	97.09	101
co-treatment: pictilisib 100 nM	101.2	103	85.6	96.7	101

O=C(Nc1ccccc1)c1cc([N+](=O)[O-])ccc1Cl [GW9662]
cell viability [%]
Conditions	1 nM	10 nM	100 nM	1000 nM	10000 nM
BV-173 [38]	103	95.7	113	91.8	56.6
HL-60 [28]	90.2	98.8	98.2	106	72.6
K-562 [33]	112	102	105	108	65.4
KU-812 [31]	97.9	102	113	87.3	71.7
LAMA-84 [37]	98.7	95.9	110	101	90.5
MOLM-13 [34]	109	97	95.5	122	80.8
MV4-11 [36]	102	93.3	108	115	42.9
Mono-Mac-6 [30]	101	107	110	112	115
NOMO-1 [32]	95.6	96.4	97.3	102	91.8
SHI-1 [29]	111	104	103	107	93.8
THP-1 [35]	103	101	102	93.7	77.2

Conditions	IC50 (cell viability) [µM]
BV-173 [11]	8.53
HL-60 [1]	> 10
K-562 [6]	> 10
KU-812 [4]	> 10
LAMA-84 [10]	> 10
MOLM-13 [7]	> 10
MV4-11 [9]	8.81
Mono-Mac-6 [3]	> 10
NOMO-1 [5]	> 10
SHI-1 [2]	> 10
THP-1 [8]	> 10

CCC(C)(C)C(=O)O[C@H]1C[C@@H](C)C=C2C=C[C@H](C)[C@H](CC[C@@H]3C[C@@H](O)CC(=O)O3)[C@H]21 [Simvastatin]
Conditions	IC50 (cell viability) [µM]
BV-173 [11]	> 10
HEL	> 10
HL-60 [1]	> 10
K-562 [6]	> 10
KCL-22	> 10
KG-1	> 10
KU-812 [4]	> 10
LAMA-84 [10]	> 10
ML-2	> 10
MOLM-13 [7]	> 10
MV4-11 [9]	> 10
Mono-Mac-6 [3]	> 10
NOMO-1 [5]	> 10
SHI-1 [2]	> 10
THP-1 [8]	> 10

N#Cc1ccnc(N2C(=O)CC[C@H]2C(=O)N(c2cncc(F)c2)[C@H](C(=O)NC2CC(F)(F)C2)c2ccccc2Cl)c1 [AG-120]
HL-60 [39]
Conditions	area under dose-response curve
co-treatment: AZD3965 100 nM	< 0.0301
co-treatment: DMSO vehicle	< 0.0301
co-treatment: GSK2194069 100 nM	< 0.0301
co-treatment: pictilisib 100 nM	< 0.0301

cell viability [%], HL-60 [27]
Conditions	0.001 µM	0.01 µM	0.1 µM	1 µM	10 µM
co-treatment: AZD3965 100 nM	102	86.8	113	91	102
co-treatment: DMSO vehicle	104	98.74	99.6	97.6	99.14
co-treatment: GSK2194069 100 nM	93.1	101	99.8	92.3	88.3
co-treatment: pictilisib 100 nM	92.9	98.2	104	77.1	98.6

From the supplement of paper PMC8671470
